We go through ten compounds from patent publication US12312379B2, “Methods for producing cyclic compounds comprising N-substituted amino acid residues” (Chugai Seiyaku Kabushiki Kaisha, priority 2021, dated 2025).

≈ marks a conversion by molar mass, not a printed value. Where two headings read alike, the source gives them in different places.

The conditions of series [1]: water/octanol; literature or database values; cited from earlier work.
The conditions of series [2]: Merck Index 14th Edition; Org. Process Res. Dev. 2007 for 2-MeTHF; cited from earlier work.
For series [3] the following is noted: cited from earlier work.
Series [4] is described as follows: Water content by Karl Fischer titration (CA-310). Particulars: after acclimatization of the sample to laboratory environment. Type of series: physicochemical. Here is the method: The water content of the hydrate crystals (Form C) of Compound 1 prepared in Example 26 was measured by Karl Fischer titration method. After acclimatization of the sample to laboratory environment, the measurement was carried out using CA-310 (manufactured by Nittoseiko Analytech).

A short description of series [5]: Dynamic water vapor adsorption (DVS Intrinsic). It counts as physicochemical. Particulars: 25° C., relative humidity range of 0% to 95%, relative to the weight when the relative humidity is 0%. The method, then: The dynamic water vapor adsorption properties of the hydrate crystals (Form C) of Compound 1 prepared in Example 26 were measured by the following method. The results are shown in FIG. 10. • Measurement apparatus: DVS Intrinsic (manufactured by Surface Measurement Systems) • Temperature: 25° C. • Relative humidity (%) measurement points: • Cycle 1: 0, 10, 20, 30, 40, 50, 60, 70, 80, 90, 95, 90, 80, 70, 60, 50, 40, 30, 20, 10, 0(%); • Cycle 2: 10, 20, 30, 40, 50, 60, 70, 80, 90, 95, 90, 80, 70, 60, 50, 40, 30, 20, 10, 0(%) • Threshold: 0.001 dm/dt (%/min) • Minimum adsorption time: 10 min • Maximum adsorption time: 1440 min

A short description of series [6]: Powder X-ray diffraction at different humidities. Type of series: physicochemical. The conditions noted are these: 35.0 °C, relative humidity of 75% to 0%, versus Form C obtained in Example 25. The method, then: Powder X-ray diffraction of the hydrate crystals (Form C) of Compound 1 prepared in Example 26 was measured at different humidities by the following method. Measurement apparatus: SmartLab System, D/Tex Ultra detector, humidity generator HUM-SL (manufactured by Rigaku Corporation) • Anticathode: Cu • Tube voltage: 45 kV • Tube current: 200 mA • Scanning range: 5-30° • Scanning speed: 0.7°/min • Sampling width: 0.02° • Varying humidity conditions: […]

Series [7] can be described thus: Amount of acetone by GC. Type of series: physicochemical. The conditions noted are these: wet crystals. Here is the method: The conditions for analyzing the amount of acetone by GC are shown below. • Instrument: GC-2010 (manufactured by SHIMADZU CORPORATION) • Column: DB-624 (Agilent), 0.530 mm ID×30 m, 3.00 μm • Column temperature: 50° C. (5 min)→10° C./min→90° C. (0 min)→50° C./min→240° C. (5 min) • Injector temperature: 230° C. • Detector temperature: 250° C. • Split ratio: 20/1 • Flow rate: 30 cm/sec

The nature of series [8]: Water content by Karl Fischer titration (CA-200). Type of series: physicochemical. The conditions noted are these: wet crystals. The source says: The conditions for analyzing the water content by Karl Fischer titration method are shown below. • Instrument: CA-200 (manufactured by Nittoseiko Analytech Co., Ltd.) • Anolyte: Aquamicron AKX • Catholyte: Aquamicron CXU
The mark [9] stands for this setting: Org. Process Res. Dev. 2007 / J. Mol. Catal. A Chem. 2010.

As for `CC#N` [acetonitrile], the “log Kow values or predicted log Kow values” in series [1] is −0.34. The “miscibility / solubility in water (in words)” value (from here on “miscibility / solubility”) in series [2] is “miscible with water”.
For `CCCCCCC` [heptane], the “log Kow values or predicted log Kow values” in series [1] is given as 4.66. Moreover, the “miscibility / solubility” value in series [2] is “insoluble in water”.
As to `CCOC(C)=O` [ethyl acetate], in series [3] (Merck Index 14th Edition), the “amount that dissolves in 1 L of water” value was 100 g. In series [1], the “log Kow values or predicted log Kow values” is 0.73.
On to `C[S+](C)[O-]` [DMSO, dimethyl sulfoxide], for which the water solubility in series [3] (ChemIDplus Advanced (NIH)) is 1000 mg/mL (≈ 12800 mM). In addition, the “log Kow values or predicted log Kow values” in series [1] is −0.31. Moreover, in series [2], the “miscibility / solubility” value is reported as “soluble in water”.
As for `CC(=O)OC(C)C` [isopropyl acetate], in series [3] (Merck Index 14th Edition), the “amount that dissolves in 1 L of water” value is on record as 43 g. Further, the “log Kow values or predicted log Kow values” in series [1] is on record as 1.02.
As for `CC1CCCO1` (stereo not drawn) [Compound 2-MeTHF, 2-methyltetrahydrofuran], the “amount that dissolves in 1 L of water” value in series [3] (setting [9]) was 140 g. In addition, the water solubility in series [3] (room temperature (e.g. 25° C.)) is 150 mg/mL (≈ 1740 mM). The “log Kow values or predicted log Kow values” in series [1] is given as 1.35. For the same compound, the “miscibility / solubility” value in series [2] was “not miscible with water”.
In series [4], “(5S,8S,11S,15S,18S,23aS,29S,35S,37aS)-8-((S)-sec-butyl)-18-cyclopentyl-29-(3,5-difluoro-4-(trifluoromethyl)phenethyl)-36-ethyl-11-isobutyl-N,N,5,6,12,16,19,33-octamethyl-35-(4-methylbenzyl)-4,7,10,13,17,20,23,28,31,34,37-undecaoxotetratriacontahydro-2H,4H-spiro[azeto[2,1-u]pyrrolo[2,1-i][1,4,7,10,13,16,19,22,25,28,31]undecaazacyclotetratriacontin-21,1′-cyclopentane]-15-carboxamide [hydrate crystals (Form C) of Compound 1]” yielded a water content of 6.50 wt %. In addition, the “weight change as the hydration number changes” value in series [5] was no more than 3.3 % weight. The “shift in 2θ values” in series [6] was no more than 0.2 °.
“(5S,8S,11S,15S,18S,23aS,29S,35S,37aS)-8-((S)-sec-butyl)-18-cyclopentyl-29-(3,5-difluoro-4-(trifluoromethyl)phenethyl)-36-ethyl-11-isobutyl-N,N,5,6,12,16,19,33-octamethyl-35-(4-methylbenzyl)-4,7,10,13,17,20,23,28,31,34,37-undecaoxotetratriacontahydro-2H,4H-spiro[azeto[2,1-u]pyrrolo[2,1-i][1,4,7,10,13,16,19,22,25,28,31]undecaazacyclotetratriacontin-21,1′-cyclopentane]-15-carboxamide” returned an acetone content in series [7] of 3.7%. The compound further showed a water content in series [8] of 17.5%.
`COc1ccccc1` [anisole]: the “log Kow values or predicted log Kow values” in series [1] was 2.11.
For the compound `COC(=O)OC` [dimethyl carbonate], the “amount that dissolves in 1 L of water” value in series [3] (Merck Index 14th Edition) and in series [3] (setting [9]) was 139 g in each case. In addition, in series [1], the “log Kow values or predicted log Kow values” is reported as 0.23.
